Assay: Concentration required for the in vitro inhibition of Acyl coenzyme A:cholesterol acyltransferase (ACAT) in intestinal microsomes isolated from cholesterol-fed rabbits

Structure (SMILES)	IC50
CCCCCCCCCCCCCCCn1nnc(C(NC(=O)c2c(C)cccc2C)c2ccccc2)n1 (configuration not stated) [2,6-Dimethyl-N-[(2-pentadecyl-2H-tetrazol-5-yl)-phenyl-methyl]-benzamide]	0.44 µM
CCCCCCCn1nnc(C(NC(=O)c2c(C)cccc2C)c2ccccc2)n1 (configuration not stated) [N-[(2-Heptyl-2H-tetrazol-5-yl)-phenyl-methyl]-2,6-dimethyl-benzamide]	3.7 µM
